Results on one compound are retold here after US10576151B2, “Ciclopirox for use in modulation of glucose homeostasis” (UNIVERSITY OF SOUTH CAROLINA, priority 2015, dated 2020).

Each structure is given as a SMILES string. “Also recorded” adds a separate entry of the source.

The test system of one test is pancreatic islets. In words: Insulin release from islets following glucose stimulation. To be noted: insulin in the media (FIG. 11A). The format is cell-based, mice. Here is the method:
In order to understand better how CPX operates in β cells, it was tested to determine if it affected the efficiency by which insulin is produced following glucose stimulation. […] In view of the antidiabetic activity of CPX in vivo, the inhibition of insulin release appears contradictory. Thus, it was hypothesized that reduced insulin secretion may be linked to reduced ER stress and blunted unfolded protein response, which in turn could explain in the long run the increased survival and functionality of the animals that received CPX. To test this hypothesis, islets were exposed to CPX and high glucose and the levels were tested of chaperones BiP, GRP94 and CHOP that reflect the intensity of the UPR. […] In line with these observations and consistently with the insulin levels in the media (FIG. 11 at A) were also the levels of insulin in the β islets (FIG. 11 at B).

The next test concerns ROS. Briefly: Cellular ROS production in islets (DCFDA assay). The format is cell-based, mice. The method, then:
Measurement of Cellular ROS Production. Islets were incubated with KR buffer containing 0.01% (w/v) bovine serum albumin (BSA), 16 mM HEPES, and 2.8 mM glucose for 60 min at 37° C. ROS measurements were measured by using the DCFDA Cellular ROS Detection Assay Kit (Abcam/Mitosciences) in a 96-well dark microplate in accordance with the manufacturer's guidelines. Briefly, 30 islets were seeded into each well. On the day of the experiment, the islets were washed with 1×phosphate buffered saline and stained with 20 μM DCFH-DA in the dark for 30 min at 37° C. After incubation, DCFH-DA was removed, and the islets were washed with 1×buffer solution. Islets were seeded in a 96-well plate followed by high glucose alone or in combination with CPX glucose treatment and iron citrate alone or in combination with CPX treatment. Samples were analyzed using a Varioskan Flash micro-plate reader (Thermo-Scientific) with excitation wavelength at 485 nm and an emission wavelength at 535 nm. Tert-Butyl hydroperoxide (TBHP) was used as positive control.

A further test has as its system p21-deficient mice. In words: Fasting glucose in diet-induced diabetic p21-deficient mice. The format is in vivo. To be noted: CPX as in wt controls, delayed response (FIG. 5A). The source says:
In Vivo Analysis of Anti-Diabetic Effect of CPX. Mice were randomly grouped. A group of C57BI/6 mice 4-5 weeks old, were fed with either a solution of 10% sucrose and a diet containing 40% kcal as a high-fat diet (HFD; Open Source Diets (New Brunswick, N.J., USA) D12451, 40% calories/fat with free access to (10%) sweetened water (sucrose) or a control chow diet containing 10% of kcal as fat (low-fat diet) and drinking water with no added sucrose (control). Mice with a glucose concentration exceeding 180 mg/dL were considered diabetic, after 2 consecutive glucose measurements. The blood glucose levels were measured using an Accu-Check blood glucose monitor (Roche, Indianapolis, Ind., USA) using blood sample collected from the tail vein. Diabetic mice were treated with either treated daily for 20 days by oral gavages with CPX (25 mg/kg) prepared in a solution (4% ethanol, 5.2% Tween 80, and 5.2% PEG 400) or vehicle control. […]
Glucose Level Determination and Intraperitoneal Insulin Tolerance Test. […] Glucose levels of mice were measured by an Accu-Chek Active meter (ROCHE) with blood sample obtained from the tail. […] For insulin resistance test, mice were injected intraperitoneally at a dose of 0.75 units/kg with human insulin (0.75 U/kg body weight; Sigma) at different time points as indicated, as for glucose tolerance after insulin injection and blood glucose was measured as described. […]

The subject of the next test is p21. In words: p21 stimulation in islets. The format is cell-based, mice. To be noted: dependence on p53. The method, then: Western Blotting. The mouse islets were treated with CPX 20 μM for 24 h and lysed in RIPA buffer [50 mM Tris, pH 7.2; 150 mM NaCl; 1% sodium deoxycholate; 0.1% SDS; 1% Triton-X 100; 10 mM NaF; 1 mM Na3VO4; protease inhibitor cocktail (1:1000, Sigma, St. Louis, Mo.)] and were subjected to immunoblot analysis by standard methods. Proteins were resolved on a 10% SDS-PAGE and transferred to a nitrocellulose membrane (Bio-Rad, Hercules, Calif.). […] After incubation with enhanced chemiluminescence reagents (Santa Cruz biotechnology Inc.), membranes were analyzed using an Image J software for Windows. Islets from wt, p21-deficient, p53-deficient and CHOP-deficient mice were exposed to CPX at 20 μM for 24 h under increasing glucose amounts in the culture media, then they were let to recover for 48 h in normal glucose-containing media and their survival was assessed (FIG. 9). […]

For `Cc1cc(C2CCCCC2)n(O)c(=O)c1` [CPX, 6-cyclohexyl-1-hydroxy-4-methylpyridin-2(1H)-one], the release of insulin result with pancreatic islets is listed as “strong inhibition of insulin production; also recorded: suppressed the release of insulin”. Moreover, the ROS production entry in the test with ROS (ROS triggered by high glucose (FIG. 12B)) and in the test with ROS (ROS triggered by iron citrate (FIG. 12B)) was “potent inhibitor of ROS” in each case. Moreover, the “glucose regulation (fasting glucose)” value in the test on p21-deficient mice is “responded significantly to CPX in terms of glucose regulation”. Further, the “p21-stimulatory activity in the islets” value with p21 is given as “p53-independent”.
